Data as given in PMC12216609, “Inhibitors of eIF1A-ribosome interaction unveil uORF-dependent regulation of translation initiation and antitumor and antiviral effects” (The EMBO Journal, 2025).
Several values for one entry are separate records, joined by “and”; a condition that tells them apart may be missing. Identical values can stand only once. Like-named read-outs stand apart in the source and are kept apart here.

Legend:
RPS10 = target: T1, RPS10 (Homo sapiens, UniProt P46783); format: binding
T1 construct: made in house; host or cells: E. coli BL-21

NSP1 = NSP1 (Severe acute respiratory syndrome coronavirus 2, UniProt P0DTD1)
[1] = tested on: cap-proximal AUG GFP reporter in HEK293T cells; format: cell-based; details: GFP WB densitometry; 20 µM overnight; dmso 0.965946;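 also: ratio of upstream to downstream AUG initiation products on GFP Western blot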
eIF1A-RPS10 interaction = target: T2, eIF1A-RPS10 interaction (Homo sapiens, UniProt P46783+P47813); assay: Split-Renilla luciferase eIF1A-RPS10 interaction screen, dose-response; format: biochemical
T2 construct: made in house; host or cells: E. coli BL21 (PRSFduet); unpurified lysate supernatant
T2 sequence (P47813 whole entry, one chain of several): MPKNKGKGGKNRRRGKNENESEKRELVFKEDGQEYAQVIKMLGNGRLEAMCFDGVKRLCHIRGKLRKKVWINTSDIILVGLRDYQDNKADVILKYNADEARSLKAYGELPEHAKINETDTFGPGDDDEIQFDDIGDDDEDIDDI
How it was run: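 Reconstituted Renilla luciferase activity reports eIF1A-RPS10 binding; loss indicates disruption by compound. Recombinant fusions (eIF1A C-terminus to N-RL; RPS10-ΔN-Renilla) expressed in E. coli BL21, used as sonicated supernatants in Tris/KCl/EDTA buffer, with unfused split-RL halves as controls.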

eIF1A = target: T3, eIF1A (Homo sapiens, UniProt P47813); format: binding; details: for fluorescence ratio, eIF1A: background-corrected, relative to DMSO or lowest 1Ai concentration, replicate columns; for WT eIF1A IC50: fluorescence binding
T3 construct: His-bdSUMO (cleaved yes); made in house; host or cells: E. coli BL-21
T3 sequence (P47813 whole entry): as the sequence (P47813 whole entry, one chain of several) above

[2] = summary table, fluorescence binding assay
[3] = summary table, read-out: IC50 concentration (µM), IC50 screen
[4] = read-out: IC50 (line under RPS10 binding data)
[5] = summary table, fluorescence binding assay, read-out: IC50 concentration (µM), RPS10
[6] = Appendix Table S1, read-out: IC50 from the split RL screen
[7] = eIF1A, from the titration data, read-out: IC50 (eIF1A titration block)

Structure (SMILES)	RPS10 fluorescence ratio to control (RPS10; 1Ai conc. 0.25 uM)	RPS10 fluorescence ratio to control (RPS10; 1Ai conc. 0.5 uM)	RPS10 fluorescence ratio to control (RPS10; 1Ai conc. 1 uM)	RPS10 fluorescence ratio to control (RPS10; 1Ai conc. 2 uM)	RPS10 fluorescence ratio to control (RPS10; 1Ai conc. 4 uM)	RPS10 fluorescence ratio to control (RPS10; 1Ai conc. 8 uM)	RPS10 fluorescence ratio to control (RPS10; 1Ai conc. 16 uM)	RPS10 fluorescence ratio to control (RPS10; 1Ai conc. 32 uM)	RPS10 fluorescence ratio to control (RPS10; 1Ai conc. 256 uM)	GFP reporter ratio nsp1/gfp, avg (NSP1)	GFP reporter ratio nsp1/gfp, rep 1 (NSP1)	gfp signal, mean of duplicate wells (NSP1)	nsp1 signal, mean of duplicate wells (NSP1)	ratio (nsp1/gfp) (NSP1)	US/DS ratio, average [1]	IC50 (eIF1A-RPS10 interaction; [3]) [µM]	fluorescence ratio, eIF1A (eIF1A; 1Ai conc. 0.25 uM)	fluorescence ratio, eIF1A (eIF1A; 1Ai conc. 0.5 uM)	fluorescence ratio, eIF1A (eIF1A; 1Ai conc. 1 uM)	fluorescence ratio, eIF1A (eIF1A; 1Ai conc. 2 uM)	also measured
Oc1cc(Cl)ccc1Oc1ccc(Cl)cc1Cl [1Ai-6248]	1.015	0.9639	0.9786	0.9545	0.9327	0.7864	0.7439	0.7362	1.057	0.4361	0.4445	2505 and 4211.5	1071.5 and 1872	0.428 and 0.444	1.042	28	0.9384 and 1.064	0.9722 and 1.055	1.006 and 1.027	0.9417 and 1.0128	RPS10 fluorescence ratio to control (RPS10; 1Ai conc. 64 uM): 0.7781; RPS10 IC50 (RPS10; fluorescence binding): No binding; IC50 concentration (µM), RPS10 (RPS10; [2]): No binding; GFP reporter ratio nsp1/gfp, rep 2 (NSP1): 0.4277; fluorescence ratio, eIF1A (eIF1A; 1Ai conc. 4 uM): 0.9205 and 0.9547; fluorescence ratio, eIF1A (eIF1A; 1Ai conc. 8 uM): 0.8204 and 0.8224; fluorescence ratio, eIF1A (eIF1A; 1Ai conc. 16 uM): 0.7985 and 0.7888; fluorescence ratio, eIF1A (eIF1A; 1Ai conc. 32 uM): 0.7283 and 0.6891; fluorescence ratio, eIF1A (eIF1A; 1Ai conc. 64 uM): 0.6123 and 0.5776; fluorescence ratio, eIF1A (eIF1A; 1Ai conc. 256 uM): 0.937 and 1.038; WT eIF1A IC50 (eIF1A): No binding; IC50 concentration (µM), WT eIF1A (eIF1A; [2]): No binding
CCOC(=O)c1ccsc1NC(=O)CN1C(=O)NC(C)(c2cccc3ccccc23)C1=O (stereo not drawn) [1Ai-1861]	1	0.8226	0.9775	0.7185	0.4957	0.1947	0.1506	0.08052	0.398	0.5997	0.5997	311	186.5	0.600	0.86	15	1.039 and 0.974	1.136 and 0.9941	1.143 and 0.9966	1.167 and 0.9386	RPS10 fluorescence ratio to control (RPS10; 1Ai conc. 64 uM): 0.3768; IC50 (RPS10; [4]): 3.7 µM; IC50 (RPS10; read-out: RPS10 IC50): 3.7 µM; IC50 (RPS10; [5]): 3.7 µM; IC50 (eIF1A-RPS10 interaction; [6]): 14 µM; fluorescence ratio, eIF1A (eIF1A; 1Ai conc. 4 uM): 1.169 and 0.9347; fluorescence ratio, eIF1A (eIF1A; 1Ai conc. 8 uM): 1.065 and 0.8919; fluorescence ratio, eIF1A (eIF1A; 1Ai conc. 16 uM): 1.1254 and 0.8973; fluorescence ratio, eIF1A (eIF1A; 1Ai conc. 32 uM): 1.149 and 0.9563; fluorescence ratio, eIF1A (eIF1A; 1Ai conc. 64 uM): 1.304 and 0.9843; fluorescence ratio, eIF1A (eIF1A; 1Ai conc. 256 uM): 1.359 and 0.9897; IC50 (eIF1A; [7]): 71 µM; WT eIF1A IC50 (eIF1A): No binding; IC50 concentration (µM), WT eIF1A (eIF1A; [2]): No binding
Cc1cc(-n2c(C)cc(-c3csc(N)n3)c2C)no1 [1Ai-6464]	0.9293	0.9332	0.9643	0.9061	0.8558	0.7733	0.6954	0.5591	0.3869	0.5623	0.5623	2104	1183	0.562	0.6968	13	0.9721 and 0.9575	1.01 and 0.9713	0.9857	0.9155	RPS10 fluorescence ratio to control (RPS10; 1Ai conc. 64 uM): 0.4769; IC50 (RPS10; [4]): 6.4 µM; IC50 (RPS10; read-out: RPS10 IC50): 6.4 µM; IC50 (RPS10; [5]): 6.4 µM; fluorescence ratio, eIF1A (eIF1A; 1Ai conc. 4 uM): 0.9236 and 0.8848; fluorescence ratio, eIF1A (eIF1A; 1Ai conc. 8 uM): 0.5527 and 0.8172; fluorescence ratio, eIF1A (eIF1A; 1Ai conc. 16 uM): 0.5305 and 0.7368; fluorescence ratio, eIF1A (eIF1A; 1Ai conc. 32 uM): 0.4838 and 0.639; fluorescence ratio, eIF1A (eIF1A; 1Ai conc. 64 uM): 0.4268 and 0.4798; fluorescence ratio, eIF1A (eIF1A; 1Ai conc. 256 uM): 0.2524 and 0.2775; IC50 (eIF1A; [7]): 21.2 µM; IC50 (eIF1A; summary table, fluorescence binding assay, read-out: IC50 concentration (µM), WT eIF1A): 21.2 µM
O=c1cc(CN2CCOCC2)occ1OCCCCCSc1ccnc2cc(C(F)(F)F)ccc12 [1Ai-5730]	1	0.9752	0.9984	0.9868	1.11	1.2215	1.217	1.212	1.367	0.5107	0.524	1636.5	857.5	0.524	0.4467	24	1.04 and 0.9394	1.062 and 0.9801	1.0621 and 0.9646	1.055 and 0.9796	IC50 (RPS10; [4]): 22.1 µM; IC50 (RPS10; read-out: RPS10 IC50): 22.1 µM; IC50 (RPS10; [5]): 22.1 µM; IC50 (eIF1A-RPS10 interaction; [6]): 30 µM; fluorescence ratio, eIF1A (eIF1A; 1Ai conc. 4 uM): 1.077 and 1.03; fluorescence ratio, eIF1A (eIF1A; 1Ai conc. 8 uM): 0.8919 and 0.9326; fluorescence ratio, eIF1A (eIF1A; 1Ai conc. 16 uM): 0.9465 and 0.9064; fluorescence ratio, eIF1A (eIF1A; 1Ai conc. 32 uM): 0.9379 and 0.8516; fluorescence ratio, eIF1A (eIF1A; 1Ai conc. 64 uM): 0.7437 and 0.7726; WT eIF1A IC50 (eIF1A): No binding; IC50 concentration (µM), WT eIF1A (eIF1A; [2]): No binding
